The values that follow are results of earlier work, collected in patent US9289389B2, “Method for producing matrix-type pharmaceutical solid preparation” (OTSUKA PHARMACEUTICAL CO., LTD., priority 2007, dated 2016).

Read-outs that look alike come from different tables or passages of the source.

For the data set the following is noted: for amount of water necessary to dissolve 1 g of sugar and/or sugar alcohol: water temperature not stated.

In the case of `OC[C@@H](O)[C@@H](O[C@H]1O[C@H](CO)[C@@H](O)[C@H](O)[C@H]1O)[C@H](O)[C@@H](O)CO` [maltitol], the “amount of water necessary to dissolve 1 g of sugar and/or sugar alcohol” value (shortened to “amount … of sugar and/or sugar alcohol”) is “easily soluble”. Take `OC[C@@H](O)[C@H](O)[C@@H](O)CO` [xylitol]: the “amount of water necessary to dissolve 1 g” value (water 20° C.) is 1.6 g. Turning to `OC[C@H]1O[C@H](O[C@H]2O[C@H](CO)[C@@H](O)[C@H](O)[C@H]2O)[C@H](O)[C@@H](O)[C@@H]1O` [trehalose dihydrate], the “amount of water necessary to dissolve 1 g” value (water 20° C.) is listed as 1.2 g. For `OC[C@H]1O[C@@](CO)(O[C@H]2O[C@H](CO)[C@@H](O)[C@H](O)[C@H]2O)[C@@H](O)[C@@H]1O` [sucrose], the “amount … of sugar and/or sugar alcohol” value is 0.5 g. In the case of `OC[C@@H](O)[C@@H](O)[C@H](O)[C@@H](O)CO` [sorbitol], for the setting “water 25° C.”, the “amount of water necessary to dissolve 1 g” value is 0.5 mL (g). In the case of `OC[C@@H](O)[C@@H](O)CO` [erythritol], the “amount of water necessary to dissolve 1 g” value (water 25° C.) is recorded as 3.3 g. For the compound `O=C(CO)[C@@H](O)[C@H](O)[C@H](O)CO` [fructose], the “amount … of sugar and/or sugar alcohol” value is recorded as 0.3 g. In the case of `OC[C@H]1O[C@H](O[C@H]2[C@H](O)[C@@H](O)C(O)O[C@@H]2CO)[C@H](O)[C@@H](O)[C@@H]1O` (mixture of isomers) [maltose monohydrate], the “amount of water necessary to dissolve 1 g” value (water 20° C.) is recorded as 1.2 g. Take `OC[C@@H](O)[C@@H](O[C@@H]1O[C@H](CO)[C@H](O)[C@H](O)[C@H]1O)[C@H](O)[C@@H](O)CO` [lactitol]: the “amount of water necessary to dissolve 1 g” value (water 20° C.) was 1.8 g.
